Measured values from publication PMC8041284, “Tunable Methacrylamides for Covalent Ligand Directed Release Chemistry” (Journal of the American Chemical Society, 2021).

Biological target: BTK (Homo sapiens, UniProt Q06187)
Assay: biochemical
Conditions: read-out: BTK inhibition (%), 0.75 uM BTK, […] probe 3l, 15 min preincubation

Chain of BTK (Q06187 402-655 limits assumed): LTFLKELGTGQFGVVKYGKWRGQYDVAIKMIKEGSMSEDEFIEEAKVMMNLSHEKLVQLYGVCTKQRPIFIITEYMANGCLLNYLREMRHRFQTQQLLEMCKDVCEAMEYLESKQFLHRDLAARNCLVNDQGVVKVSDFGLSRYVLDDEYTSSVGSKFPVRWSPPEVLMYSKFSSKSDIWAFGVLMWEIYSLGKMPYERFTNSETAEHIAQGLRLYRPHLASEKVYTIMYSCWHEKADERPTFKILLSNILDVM

Structure (SMILES) | inhibition at 10 µM [%]
CN1[C@@H]2CC(O)C[C@H]1[C@@H]1O[C@@H]12 (stereo partly shown) [PCM-0095322] | -2.3
COc1cc(C=O)ccc1O [PCM-0094868] | 21.8
NC(N)=Nc1nc(CSCC/C(N)=N/S(N)(=O)=O)cs1 [PCM-0214735] | -26.2
O=C(Nc1ccccc1-c1cn2c(CN3CCNCC3)csc2n1)c1cnc2ccccc2n1 [PCM-0094935] | 10.3
O=c1c(O)c(-c2ccc(O)cc2)oc2cc(O)cc(O)c12 [PCM-0087037] | 67.7
NC(=O)c1ccc(-c2nc(-c3ccc4c(c3)OCO4)c(-c3ccccn3)[nH]2)cc1 [PCM-0095013] | 12.4
CN(C)CCc1c[nH]c2ccc(Cn3cncn3)cc12 [PCM-0090241] | -3.1
Cn1cc(C(=O)Nc2ccc3c(c2)OCCO3)c2ccccc2c1=O [PCM-0215752] | 6.9
N=C(N=C(N)N)N1CCOCC1 [PCM-0085762] | -3.1
Nc1nc(N)c2nc(-c3cccc(O)c3)cnc2n1 [PCM-0095537] | -35.7
OC[C@@H](O)[C@@H](O)[C@H](O)[C@@H](O)CO [PCM-0090796] | -19.5
CC[C@@H](N)CNc1ccnc(-c2cc(-c3cnn(C)c3)ccc2O)n1 [PCM-0215825] | 2.8
CCCCCCCCCCCCCC(=O)O [PCM-0216589] | 1.7
O=C(Cn1nnc(-c2ccncc2)c1-c1ccccc1)Nc1ccc(-c2ccccc2)cn1 [PCM-0216012] | 39.4
NC1=N[C@@](c2cccc(-c3cncnc3)c2)(c2ccnc(C(F)F)c2)c2cccc(F)c21 [PCM-0215490] | -5.4
O=c1[nH]c(-c2ccc(C(F)(F)F)cc2)nc2c1CSCC2 [PCM-0095054] | -25.5
CCc1ccc(OCc2ccccc2C(=O)Nc2ccc3nc(C)cc(N)c3c2)cc1 [PCM-0095441] | 33.5
COc1cc(C)c2c(=O)c(-c3ccccc3)coc2c1 [PCM-0216420] | 32.4
Cc1cc(O)c2c(c1)C(=O)c1cccc(O)c1C2=O [PCM-0090919] | -4.8
COc1cc2ncnc(Nc3cccc(Cl)c3)c2cc1OC [PCM-0012125] | 21.4
Cc1ccc(C(=O)Nc2ccc(Oc3cc4cnn(C)c4cc3-c3cn[nH]c3)c(F)c2)c(=O)n1-c1ccc(F)cc1 [PCM-0215736] | 105
NC(N)=NCCC[C@H](N)C(=O)O [PCM-0215193] | 2.6

Structure (SMILES) | inhibition at 10 µM [%]
Cc1c(N)nc([C@H](CC(N)=O)NC[C@H](N)C(N)=O)nc1C(=O)N[C@H](C(=O)N[C@H](C)[C@@H](O)[C@H](C)C(=O)N[C@H](C(=O)NCCc1nc(-c2nc(C(=O)NCCC[S+](C)C)cs2)cs1)[C@@H](C)O)[C@@H](O[C@@H]1O[C@@H](CO)[C@@H](O)[C@H](O)[C@@H]1O[C@H]1O[C@H](CO)[C@@H](O)[C@H](OC(N)=O)[C@@H]1O)c1cnc[nH]1 [PCM-0215181] | 7.7
CC(C[N+](C)(C)C)OC(N)=O (stereo not shown) [PCM-0064662] | -7
COc1cc2oc(=O)ccc2cc1O [PCM-0216502] | -10
N#CC[C@@H](C1CCCC1)n1cc(-c2ncnc3[nH]ccc23)cn1 [PCM-0095369] | 15.9
CC1=C(CC[C@@H](C)CO[C@@H]2O[C@H](CO)[C@@H](O)[C@H](O)[C@H]2O)O[C@H]2C[C@H]3[C@@H]4CC=C5C[C@@H](O[C@@H]6O[C@H](CO)[C@@H](O[C@@H]7O[C@@H](C)[C@H](O)[C@@H](O)[C@H]7O)[C@H](O)[C@H]6O[C@@H]6O[C@@H](C)[C@H](O)[C@@H](O)[C@H]6O)CC[C@]5(C)[C@H]4CC[C@]3(C)[C@@H]12 [PCM-0216365] | -11.9
Cn1cc(-c2ccc3c(c2)CCN3C(=O)Cc2cccc(C(F)(F)F)c2)c2c(N)ncnc21 [PCM-0095812] | 40
CCCCCCCCN=c1ccn(CCCCCCCCCCn2ccc(=NCCCCCCCC)cc2)cc1 [PCM-0215117] | -64.1
O=C(O)[C@H](O)[C@H](O)[C@@H](O)[C@H](O)[C@H](O)CO [PCM-0215251] | -28.9
Nc1ccc(S(=O)(=O)Nc2cncc(Cl)n2)cc1 [PCM-0215142] | -10.9
C[C@H](Cn1cnc2c(N)ncnc21)OCP(=O)(O)O [PCM-0090661] | -11.7
COC(=O)CNC(=O)C(=O)OC [PCM-0215303] | 3.9
O=c1[nH]cc(F)c(=O)[nH]1 [PCM-0065247] | -0.7
O=c1cc(N2CCOCC2)oc2c1ccc1ccccc12 [PCM-0215173] | -17.9
COc1ccc(-n2c(C)c([N+](=O)[O-])c3ccc(O)cc32)cc1 [PCM-0215272] | 23.4
NS(=O)(=O)c1ccc(NC(=O)Nc2ccc(F)cc2)cc1 [PCM-0095531] | -15.6
CC(C)C[C@H](NC(=O)[C@@H](NC(=O)c1cccc(-c2ccccc2)n1)[C@@H](C)O)B(O)O [PCM-0214714] | 6.2
Cc1cc(=O)n(-c2ccccc2)n1C [PCM-0085809] | 13.8
CC1=C(/C=C/C(C)=C/C=C/C(C)=C/C=C/C=C(C)/C=C/C=C(C)/C=C/C2=C(C)C(=O)[C@@H](O)CC2(C)C)C(C)(C)C[C@H](O)C1=O [PCM-0214960] | 16.6
NC[C@H](O)c1ccc(O)c(O)c1 [PCM-0214713] | -5.4
Cc1ccc2nc(NC(=O)CSc3nc4c(c(=O)n3-c3ccccc3)SCC4)sc2c1 [PCM-0215324] | 10.2
O=CO [PCM-0216152] | -12.4
Cn1cc(-c2ccc3nnc(C(F)(F)c4ccc5ncccc5c4)n3n2)cn1 [PCM-0094910] | -1.4

The next lines start with the values.

inhibition at 10 µM [%] | Structure (SMILES)
-25.7 | C=C[C@](C)(O)CC[C@@H]1[C@@]2(C)CCCC(C)(C)[C@@H]2CC[C@@]1(C)O [PCM-0094807]
65.5 | CCc1cccc(CC)c1NC(=O)N1Cc2[nH]nc(NC(=O)c3ccc(N4CCN(C)CC4)cc3)c2C1 [PCM-0095127]
9.7 | OC[C@H]1O[C@@H](Oc2c(O)cc(O)cc2/C=C/c2ccc(O)cc2)[C@H](O)[C@@H](O)[C@@H]1O [PCM-0215025]
-27.8 | COc1ccc(C2=N[C@H](c3ccc(Cl)cc3)[C@H](c3ccc(Cl)cc3)N2C(=O)N2CCNC(=O)C2)c(OC(C)C)c1 [PCM-0215386]
-5.1 | CCC[C@@H]1C[C@@H](C(=O)N[C@@H]([C@H]2O[C@H](SC)[C@H](OP(=O)(O)O)[C@@H](O)[C@H]2O)[C@H](C)Cl)N(C)C1 [PCM-0095212]
26.5 | CC(C)(C)c1cc(O)c(C(C)(C)C)cc1O [PCM-0214931]
-3.9 | CC(NC(C)(C)C)C(=O)c1cccc(Cl)c1 (stereo not shown) [PCM-0064429]
2.3 | CCn1cc(-c2cccc(C(F)(F)F)c2)c2sc(C(N)=NC3CCS(=O)(=O)CC3)cc2c1=O [PCM-0215627]
79.3 | Cc1ccc(Nc2cc(N[C@@H]3CCCC[C@@H]3N)nnc2C(N)=O)nc1C [PCM-0215730]
-13.9 | COc1ccc(C(=O)O)cc1O [PCM-0215975]
-3.9 | O=C(NCCN1CCOCC1)c1ccc(Cl)cc1 [PCM-0064796]
10.8 | CC(C)(C)C(=O)Nc1ccc2c(c1)C(=O)C(=O)c1ccccc1-2 [PCM-0215348]
8.3 | CN(C)CC/C=C1/c2ccccc2COc2ccc(CC(=O)O)cc21 [PCM-0086250]
-7.6 | C[C@@H]1COCCN1c1cc(C2(S(C)(=O)=O)CC2)nc(-c2cccc3[nH]ccc23)n1 [PCM-0095779]
98.1 | CCOC(=O)c1ccc(NC(=O)O[C@H]2[C@H](OC(=O)Nc3ccc4c(c3)OCO4)[C@@H](OC(=O)Nc3ccc4c(c3)OCO4)[C@@H](OC)O[C@@H]2CO)cc1 [PCM-0215463]
56 | COC[C@H]1C[C@@H](c2ncc(-c3ccc4c(c3)COc3cc5c(ccc6[nH]c([C@@H]7CC[C@H](C)N7C(=O)[C@@H](NC(=O)OC)C(C)C)nc65)cc3-4)[nH]2)N(C(=O)[C@H](NC(=O)OC)c2ccccc2)C1 [PCM-0214920]

inhibition at 10 µM [%] | Structure (SMILES)
3.4 | CS(=O)(=O)Nc1ccc([N+](=O)[O-])cc1OC1CCCCC1 [PCM-0215740]
32.7 | NC(=O)N1CCC(CC(=O)N2CCC([C@H]3c4ncc(Br)cc4CCc4cc(Cl)cc(Br)c43)CC2)CC1 [PCM-0095392]
18.6 | COC(=O)Nc1ccc(-c2nc(N3CCOCC3)c3cnn(C4CCN(C(=O)OC)CC4)c3n2)cc1 [PCM-0095038]
-15.2 | O=C(O)CCC1CCC(c2cc(F)ccc2F)(S(=O)(=O)c2ccc(Cl)cc2)CC1 (stereo not shown) [PCM-0095325]
-2.6 | CN(C)c1ccc(-c2nc3ncc(Cl)c(N4CCN(CC(=O)Nc5nccs5)CC4)c3[nH]2)cc1 [PCM-0095191]
21 | CC(=O)O[C@]1(C(C)=O)CC[C@H]2[C@@H]3C=C(Cl)C4=CC(=O)[C@@H]5C[C@@H]5[C@]4(C)[C@H]3CC[C@@]21C [PCM-0214712]
33.1 | NC1(C(=O)N[C@@H](CCO)c2ccc(Cl)cc2)CCN(c2ncnc3[nH]ccc23)CC1 [PCM-0095607]
-1.6 | CCN(CC)CCOC(=O)c1ccc(N)cc1Cl [PCM-0214797]
-6.9 | COc1cc([C@H]2OC[C@H]3[C@@H]2CO[C@@H]3c2ccc(O[C@@H]3O[C@H](CO)[C@@H](O)[C@H](O)[C@H]3O)c(OC)c2)ccc1O[C@@H]1O[C@H](CO)[C@@H](O)[C@H](O)[C@H]1O [PCM-0216471]
7.7 | O=C(CCCCCN1C(=O)c2cccc3cccc(c23)C1=O)NO [PCM-0095631]
0.8 | O=c1ccc2ccc(OCCCCN3CCN(c4cccc5sccc45)CC3)cc2[nH]1 [PCM-0214822]
-11 | COC1[C@@H](O)[C@@H](O)C(O)[C@H](O)[C@H]1O (stereo partly shown) [PCM-0215037]
-6.2 | O=C(O)c1cc(=O)cc(C(=O)O)o1 [PCM-0216206]
-9.3 | CCCCN1CCCCC1C(=O)Nc1c(C)cccc1C (stereo not shown) [PCM-0085904]
-13.1 | CCC(C)(C)C(=O)O[C@H]1C[C@@H](C)C=C2C=C[C@H](C)[C@H](CC[C@@H]3C[C@@H](O)CC(=O)O3)[C@H]21 [PCM-0214653]
0 | O=c1[nH]cnc2c1ncn2[C@H]1C[C@H](O)[C@@H](CO)O1 [PCM-0214983]
